The numbers were not newly measured in paper PMC7774954, “Interactomic affinity profiling by holdup assay: Acetylation and distal residues impact the PDZome-binding specificity of PTEN phosphatase” (PLoS ONE, 2020), which cites them from elsewhere.

Where no end group is shown, it is not given here. The star is where a group is joined. Biotin = O=C1N[C@H]2[C@H](CS[C@H]2CCCCC(=O)*)N1; TTDS = NCCCOCCOCCOCCCNC(=O)CCC(=O)*

In one series the target is SNX27 PDZ 1. Particulars: ITC, read-out: KD (affinity provided in the literature); cited from earlier work. The text has this:
(§1) Table 1 PDZ domains interactors for PTEN according to literature and the present study. | column: KD ^d
A general note: In ITC the heat of successive injections is recorded.

The next series has as its target MAST2 PDZ 1. The note with it: ITC, read-out: KD (affinity provided in the literature); cited from earlier work.
Excerpt: as §1

The target of the next series is PARD3 PDZ 3. Particulars: FP, read-out: KD (affinity provided in the literature); cited from earlier work.
Excerpt: as §1

In the next series the test system is PTPN13-4 domain. Particulars: cited from earlier work. The text has this:
It has been shown that the binding of the tumor suppressor PTEN, through its PBM, to PDZ dom ...

Broadly, the Kd is the concentration at which binding is half-saturated. On to “PTEN: PTEN constructs of published studies; phosphatase and tensin homolog deleted on chromosome 10 ({Biotin-TTDS}-DEDQHTQITKV)”, for which the Kd on SNX27 PDZ 1 is 38 µM; at MAST2 PDZ 1 it was 2 µM; on PARD3 PDZ 3 it was 19 µM. For the same substance, the “interaction with PTPN13-4 (in words)” value in the series on PTPN13-4 domain is listed as “absence of interaction”.
